Data from US4244952A, “Imidazo[2',1':2,3]-thiazolo[5,4-c]pyridines and composition thereof for treating immune diseases” (Yoshitomi Pharmaceutical Industries, Ltd., priority 1978, dated 1981).

Assays:
[1] = test system: rosette forming cells (RFC) in the spleen and thymus; test: Activity for suppressing immune response in BALB/c mice (RFC number after SRBC sensitization); type: in vivo, female BALB/c-strain mice; settings: 30 mg/kg p.o.; for RFC/organ Spleen: day 0 and 1; for RFC/organ Thymus: day 0 and 1, ** P < 0.01 vs. control
Protocol: (II) Activity for suppressing immune response in BALB/c mice
As test animals, female BALB/c-strain mice (6 week old) were used by dividing them into groups of 6 members.
The sensitization (day 0) was made by the intraperitoneal injection the antigen; 5×10^8 sheep red blood cells (SRBC). Each mouse was orally administered with test compounds at day 0 and 1. Four days after the sensitization, the number of rosette forming cells (RFC) in the spleen and thymus was measured in a usual manner.

[2] = test system: rosette forming cells (RFC) in the spleen and thymus; test: Activity for potentiating immune response in dd-mice (RFC number after SRBC sensitization in CY-treated mice); type: in vivo, male dd-strain mice
Protocol: (I) Activity for potentiating immune response in dd-mice
As test animals, male dd-strain mice (8 week old) were used by dividing them into groups of 6 members. Each mouse was orally administered once a day with cyclophosphamide (CY) at a dose of 20 mg/kg 1 and 0 day before the sensitization. The sensitization (day 0) was made by the intravenous injection of the antigen; 1×10^8 sheep red blood cells (SRBC). Each mouse was orally administered with test compounds (day 0-4). Five days after the sensitization, the number of rosette forming cells (RFC) in the spleen and thymus was measured in a usual manner.

[3] = Acute toxicity; settings: mouse, in vivo, male dd-strain mice
Protocol: Acute toxicity of the test compound was determined using male dd-strain mice (8 week old) as test animals. The test compound was administered orally or intraperitoneally.

[4] = CY (20 mg/kg) + test compound 1 mg/kg p.o., day 0-4, * P < 0.05 vs. CY treatment
[5] = CY (20 mg/kg) + test compound 1 mg/kg p.o., day 0-4, ** P < 0.01 vs. CY treatment
[6] = CY (20 mg/kg) + test compound 10 mg/kg p.o., day 0-4
[7] = CY (20 mg/kg) + test compound 10 mg/kg p.o., day 0-4, * P < 0.05 vs. CY treatment
[8] = CY alone, 20 mg/kg p.o. once a day, 1 and 0 day before sensitization, dd-mice

Compound	RFC/organ Spleen [1]	RFC/organ Thymus [1]	RFC/organ Thymus [2, 4]	RFC/organ Spleen [2, 5]	RFC/organ Spleen [2, 6]	RFC/organ Thymus [2, 7]	LD50 ([3]; ip) [mg/kg]	LD50 ([3]; po) [mg/kg]	RFC/organ Spleen [2, 8]	RFC/organ Thymus [2, 8]	number of RFC per spleen and thymus ([2]; group treated with CY alone)
O=[N+]([O-])c1ccc(CN2CCc3c(sc4nccn34)C2)cc1 [Compound B, 7-(4-nitrobenzyl)-5,6,7,8-tetrahydroimidazo[2',1':2,3]thiazolo-[5,4-c]pyridine]	104 × 10^4	0.14 × 10^4	2.00 × 10^4	291 × 10^4	135 × 10^4	1.56 × 10^4	600 to 1000	600	–	–	–
CCOC(=O)N1CCc2c(sc3nc(-c4ccc([N+](=O)[O-])cc4)cn23)C1 [Compound A, 7-ethoxycarbonyl-2-(4-nitrophenyl)-5,6,7,8-tetrahydroimidazo[2',1':2,3]thiazolo[5,4-c]pyridine]	174 × 10^4	0.00 × 10^4	3.33 × 10^4	169 × 10^4	220 × 10^4	3.11 × 10^4	600	1000	–	–	–
O=P1(N(CCCl)CCCl)NCCCO1 (stereo not shown) [CY, cyclophosphamide, reference compound]	–	–	–	–	–	–	–	–	101 × 10^4	0.44 × 10^4	reduced significantly
